# Columns and labels:
# Experiment in all cases: biochemical
# PRKCE (PKC epsilon) = molecular target: T1, PRKCE (PKC epsilon) (Homo sapiens, UniProt Q02156); design: SelectScreen Z'-LYTE purified kinase panel, per cent inhibition, mean of two points; settings: (μM)=Km app
# T1 sequence (Q02156 1-737): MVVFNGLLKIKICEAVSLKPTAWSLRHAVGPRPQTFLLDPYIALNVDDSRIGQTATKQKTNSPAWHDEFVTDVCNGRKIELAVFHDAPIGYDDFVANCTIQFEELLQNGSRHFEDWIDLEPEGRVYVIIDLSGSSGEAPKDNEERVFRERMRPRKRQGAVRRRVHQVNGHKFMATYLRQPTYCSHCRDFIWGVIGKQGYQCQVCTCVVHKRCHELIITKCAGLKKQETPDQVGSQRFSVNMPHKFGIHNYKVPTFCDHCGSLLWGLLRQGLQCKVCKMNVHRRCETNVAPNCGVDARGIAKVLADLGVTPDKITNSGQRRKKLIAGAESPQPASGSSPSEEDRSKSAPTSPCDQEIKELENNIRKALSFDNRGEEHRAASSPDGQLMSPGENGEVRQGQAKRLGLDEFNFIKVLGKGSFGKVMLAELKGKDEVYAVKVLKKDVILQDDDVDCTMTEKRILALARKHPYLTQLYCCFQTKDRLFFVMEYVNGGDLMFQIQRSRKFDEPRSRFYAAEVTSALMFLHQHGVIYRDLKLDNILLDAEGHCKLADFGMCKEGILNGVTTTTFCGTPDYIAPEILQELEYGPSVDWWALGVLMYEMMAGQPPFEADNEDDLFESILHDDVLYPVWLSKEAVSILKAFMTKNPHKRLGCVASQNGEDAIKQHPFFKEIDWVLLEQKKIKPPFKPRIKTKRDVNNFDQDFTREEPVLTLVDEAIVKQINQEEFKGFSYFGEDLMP
# ACVR1B (ALK4) = molecular target: T2, ACVR1B (ALK4) (Homo sapiens, UniProt P36896); design: SelectScreen Z'-LYTE purified kinase panel, per cent inhibition, mean of two points; settings: (μM)=Km app
# T2 sequence (P36896 1-505): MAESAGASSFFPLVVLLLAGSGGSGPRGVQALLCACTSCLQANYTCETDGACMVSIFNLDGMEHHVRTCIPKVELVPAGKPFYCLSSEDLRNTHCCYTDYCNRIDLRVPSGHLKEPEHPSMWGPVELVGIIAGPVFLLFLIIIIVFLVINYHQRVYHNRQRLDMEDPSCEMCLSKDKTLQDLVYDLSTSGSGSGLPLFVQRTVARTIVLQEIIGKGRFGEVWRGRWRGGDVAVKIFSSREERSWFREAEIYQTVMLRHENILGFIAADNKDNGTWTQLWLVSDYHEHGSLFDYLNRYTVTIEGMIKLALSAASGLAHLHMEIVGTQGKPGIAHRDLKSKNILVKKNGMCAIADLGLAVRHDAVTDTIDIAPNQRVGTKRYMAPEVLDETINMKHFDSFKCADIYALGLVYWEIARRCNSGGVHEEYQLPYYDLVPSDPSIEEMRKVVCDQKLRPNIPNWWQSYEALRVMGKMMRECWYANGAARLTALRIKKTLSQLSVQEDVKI
# GSK3B (GSK3 beta) = GSK3B (GSK3 beta) (Homo sapiens, UniProt P49841); design: SelectScreen Z'-LYTE purified kinase panel, per cent inhibition, mean of two points; settings: (μM)=Km app
# ERBB2 (HER2) = ERBB2 (HER2) (Homo sapiens, UniProt P04626); design: SelectScreen Z'-LYTE purified kinase panel, per cent inhibition, mean of two points; settings: (μM)=Km app
# AURKA (Aurora A) = molecular target: T3, AURKA (Aurora A) (Homo sapiens, UniProt O14965); design: SelectScreen Z'-LYTE purified kinase panel, per cent inhibition, mean of two points; settings: (μM)=Km app
# T3 sequence (O14965 1-403): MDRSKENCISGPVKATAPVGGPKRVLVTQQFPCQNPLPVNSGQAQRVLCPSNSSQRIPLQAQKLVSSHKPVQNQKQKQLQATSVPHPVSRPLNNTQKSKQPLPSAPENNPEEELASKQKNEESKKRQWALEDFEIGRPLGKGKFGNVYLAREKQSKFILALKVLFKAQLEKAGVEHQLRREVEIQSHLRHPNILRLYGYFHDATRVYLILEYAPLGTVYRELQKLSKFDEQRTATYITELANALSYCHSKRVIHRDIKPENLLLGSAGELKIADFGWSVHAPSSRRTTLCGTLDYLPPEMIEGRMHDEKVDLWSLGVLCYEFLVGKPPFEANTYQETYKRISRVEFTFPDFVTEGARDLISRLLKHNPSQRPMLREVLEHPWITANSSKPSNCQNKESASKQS
# PDGFRA (PDGFR alpha) = PDGFRA (PDGFR alpha) (Homo sapiens, UniProt P16234); design: SelectScreen Z'-LYTE purified kinase panel, per cent inhibition, mean of two points; settings: (μM)=Km app
# CSNK1D (CK1 delta) = CSNK1D (CK1 delta) (Homo sapiens, UniProt P48730); design: SelectScreen Z'-LYTE purified kinase panel, per cent inhibition, mean of two points; settings: (μM)=Km app
# PKN1 (PRK1) = PKN1 (PRK1) (Homo sapiens, UniProt Q16512); design: SelectScreen Z'-LYTE purified kinase panel, per cent inhibition, mean of two points; settings: (μM)=Km app
# PI3KC2β = molecular target: T4, PI3KC2β (Homo sapiens, UniProt O00750); design: ADP-Glo lipid kinase assay with liver PI substrate, luminescence; settings: read-out: PITCOIN3 (IC50)
# T4 construct: gene PIK3C2B
# Chain of PDGFRA (PDGFR alpha) (P16234 whole entry): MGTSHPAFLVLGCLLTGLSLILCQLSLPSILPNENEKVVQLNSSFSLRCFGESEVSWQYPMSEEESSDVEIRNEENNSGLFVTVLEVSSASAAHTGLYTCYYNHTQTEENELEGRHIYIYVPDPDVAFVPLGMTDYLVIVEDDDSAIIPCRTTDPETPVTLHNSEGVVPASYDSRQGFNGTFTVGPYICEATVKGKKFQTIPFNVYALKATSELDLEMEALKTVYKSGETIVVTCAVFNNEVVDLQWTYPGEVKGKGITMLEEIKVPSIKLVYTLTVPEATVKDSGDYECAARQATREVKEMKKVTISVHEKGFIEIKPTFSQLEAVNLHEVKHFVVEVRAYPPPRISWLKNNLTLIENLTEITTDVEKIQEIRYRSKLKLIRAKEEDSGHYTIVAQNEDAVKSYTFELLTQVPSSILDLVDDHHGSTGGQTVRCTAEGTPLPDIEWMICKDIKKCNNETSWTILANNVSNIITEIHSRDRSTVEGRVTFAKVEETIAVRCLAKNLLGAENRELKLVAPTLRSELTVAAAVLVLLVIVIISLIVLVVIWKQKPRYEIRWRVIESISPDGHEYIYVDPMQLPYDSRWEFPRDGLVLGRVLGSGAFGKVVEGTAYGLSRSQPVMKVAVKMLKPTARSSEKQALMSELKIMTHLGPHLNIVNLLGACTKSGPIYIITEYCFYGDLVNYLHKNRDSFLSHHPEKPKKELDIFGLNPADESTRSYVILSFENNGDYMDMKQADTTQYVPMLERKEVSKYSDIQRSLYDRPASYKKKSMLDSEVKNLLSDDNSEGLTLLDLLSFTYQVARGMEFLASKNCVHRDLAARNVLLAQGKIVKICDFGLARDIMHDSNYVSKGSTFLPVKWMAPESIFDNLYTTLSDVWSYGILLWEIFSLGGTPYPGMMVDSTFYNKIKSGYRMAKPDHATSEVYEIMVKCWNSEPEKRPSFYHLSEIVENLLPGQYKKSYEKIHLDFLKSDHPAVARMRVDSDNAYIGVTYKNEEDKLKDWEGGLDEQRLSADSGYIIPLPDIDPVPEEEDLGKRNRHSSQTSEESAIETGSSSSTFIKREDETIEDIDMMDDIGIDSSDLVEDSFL
# Chain of PKN1 (PRK1) (Q16512 whole entry): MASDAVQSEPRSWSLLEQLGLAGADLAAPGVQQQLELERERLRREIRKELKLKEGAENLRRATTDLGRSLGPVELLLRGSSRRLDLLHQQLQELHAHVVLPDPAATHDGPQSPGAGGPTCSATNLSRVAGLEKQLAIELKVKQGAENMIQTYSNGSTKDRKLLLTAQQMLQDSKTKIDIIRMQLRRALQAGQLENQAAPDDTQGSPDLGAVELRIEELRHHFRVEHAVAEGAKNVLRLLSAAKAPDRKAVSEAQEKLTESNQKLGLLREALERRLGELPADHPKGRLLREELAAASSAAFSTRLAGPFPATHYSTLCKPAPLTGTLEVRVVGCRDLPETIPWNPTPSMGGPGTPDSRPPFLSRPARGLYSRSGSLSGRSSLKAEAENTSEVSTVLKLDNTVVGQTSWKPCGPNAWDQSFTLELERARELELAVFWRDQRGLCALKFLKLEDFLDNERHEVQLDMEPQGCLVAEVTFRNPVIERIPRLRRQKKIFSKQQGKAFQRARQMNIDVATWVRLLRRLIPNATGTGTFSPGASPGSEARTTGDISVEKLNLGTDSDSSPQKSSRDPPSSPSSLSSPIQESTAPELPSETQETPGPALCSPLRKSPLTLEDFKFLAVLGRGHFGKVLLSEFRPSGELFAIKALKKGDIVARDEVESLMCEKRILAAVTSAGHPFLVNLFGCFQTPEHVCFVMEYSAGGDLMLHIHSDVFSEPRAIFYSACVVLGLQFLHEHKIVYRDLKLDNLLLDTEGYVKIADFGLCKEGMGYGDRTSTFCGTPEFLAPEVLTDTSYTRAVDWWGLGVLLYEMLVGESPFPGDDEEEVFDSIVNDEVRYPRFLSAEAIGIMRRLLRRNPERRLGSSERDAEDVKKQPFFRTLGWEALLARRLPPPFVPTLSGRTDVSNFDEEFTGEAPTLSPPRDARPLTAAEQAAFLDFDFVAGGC
# Chain of ERBB2 (HER2) (P04626 whole entry): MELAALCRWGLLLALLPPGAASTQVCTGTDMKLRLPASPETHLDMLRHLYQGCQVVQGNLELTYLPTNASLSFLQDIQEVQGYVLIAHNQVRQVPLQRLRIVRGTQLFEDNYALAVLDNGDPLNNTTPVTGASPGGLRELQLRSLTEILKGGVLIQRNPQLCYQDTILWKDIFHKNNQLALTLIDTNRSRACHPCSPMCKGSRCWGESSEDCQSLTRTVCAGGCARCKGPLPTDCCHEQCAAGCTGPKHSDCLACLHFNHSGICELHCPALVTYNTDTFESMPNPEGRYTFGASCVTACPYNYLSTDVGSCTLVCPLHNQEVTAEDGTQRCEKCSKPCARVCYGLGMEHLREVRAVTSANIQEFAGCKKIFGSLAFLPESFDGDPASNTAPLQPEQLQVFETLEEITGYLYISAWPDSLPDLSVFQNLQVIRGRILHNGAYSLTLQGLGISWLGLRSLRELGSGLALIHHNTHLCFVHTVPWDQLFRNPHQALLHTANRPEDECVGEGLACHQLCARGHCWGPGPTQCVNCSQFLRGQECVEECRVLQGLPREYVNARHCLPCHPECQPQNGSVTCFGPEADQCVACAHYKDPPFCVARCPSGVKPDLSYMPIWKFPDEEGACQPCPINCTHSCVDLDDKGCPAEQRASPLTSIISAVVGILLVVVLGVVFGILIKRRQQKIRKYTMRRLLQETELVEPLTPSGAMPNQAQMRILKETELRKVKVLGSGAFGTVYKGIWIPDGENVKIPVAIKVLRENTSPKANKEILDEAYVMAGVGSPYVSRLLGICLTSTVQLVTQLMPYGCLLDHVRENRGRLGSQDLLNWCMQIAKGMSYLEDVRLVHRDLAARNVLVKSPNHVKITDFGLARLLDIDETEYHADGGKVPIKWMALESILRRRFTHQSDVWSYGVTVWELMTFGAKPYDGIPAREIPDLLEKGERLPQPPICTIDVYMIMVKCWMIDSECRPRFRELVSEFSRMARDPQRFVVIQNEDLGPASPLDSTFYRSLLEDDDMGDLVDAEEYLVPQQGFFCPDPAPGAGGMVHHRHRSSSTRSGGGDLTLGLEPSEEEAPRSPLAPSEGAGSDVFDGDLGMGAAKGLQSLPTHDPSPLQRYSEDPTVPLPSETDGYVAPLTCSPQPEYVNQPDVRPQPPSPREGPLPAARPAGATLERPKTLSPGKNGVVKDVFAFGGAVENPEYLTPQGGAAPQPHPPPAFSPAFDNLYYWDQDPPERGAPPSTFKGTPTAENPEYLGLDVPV
# Chain of GSK3B (GSK3 beta) (P49841 whole entry): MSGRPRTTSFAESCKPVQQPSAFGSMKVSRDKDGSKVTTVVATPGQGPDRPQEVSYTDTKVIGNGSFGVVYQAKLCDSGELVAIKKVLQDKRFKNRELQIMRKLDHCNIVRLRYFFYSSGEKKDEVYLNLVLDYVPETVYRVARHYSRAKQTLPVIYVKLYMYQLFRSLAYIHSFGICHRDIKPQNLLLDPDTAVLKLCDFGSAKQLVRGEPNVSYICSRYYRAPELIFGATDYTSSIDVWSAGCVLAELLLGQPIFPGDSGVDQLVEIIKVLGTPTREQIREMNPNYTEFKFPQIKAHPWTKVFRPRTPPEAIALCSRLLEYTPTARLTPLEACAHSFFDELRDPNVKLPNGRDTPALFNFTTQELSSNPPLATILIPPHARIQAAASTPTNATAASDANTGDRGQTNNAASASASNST
# Chain of CSNK1D (CK1 delta) (P48730 whole entry): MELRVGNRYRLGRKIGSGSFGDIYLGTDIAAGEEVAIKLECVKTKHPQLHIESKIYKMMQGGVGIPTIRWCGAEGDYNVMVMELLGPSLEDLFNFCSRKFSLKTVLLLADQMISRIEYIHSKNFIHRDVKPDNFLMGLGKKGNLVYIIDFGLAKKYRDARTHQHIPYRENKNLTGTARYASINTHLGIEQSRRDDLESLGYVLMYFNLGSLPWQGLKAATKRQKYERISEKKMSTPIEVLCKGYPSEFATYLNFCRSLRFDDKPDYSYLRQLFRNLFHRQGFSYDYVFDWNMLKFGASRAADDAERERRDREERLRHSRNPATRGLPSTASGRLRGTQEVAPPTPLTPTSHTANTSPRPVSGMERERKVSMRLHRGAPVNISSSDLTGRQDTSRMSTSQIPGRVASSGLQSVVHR
inhibition at 1 µM (PRKCE (PKC epsilon)),inhibition at 3 µM (PRKCE (PKC epsilon)),inhibition at 10 µM (PRKCE (PKC epsilon)),inhibition at 1 µM (ACVR1B (ALK4)),inhibition at 3 µM (ACVR1B (ALK4)),inhibition at 10 µM (ACVR1B (ALK4)),inhibition at 1 µM (GSK3B (GSK3 beta)),inhibition at 3 µM (GSK3B (GSK3 beta)),inhibition at 10 µM (GSK3B (GSK3 beta)),inhibition at 1 µM (ERBB2 (HER2)),inhibition at 3 µM (ERBB2 (HER2)),inhibition at 10 µM (ERBB2 (HER2)),inhibition at 1 µM (AURKA (Aurora A)),inhibition at 3 µM (AURKA (Aurora A)),inhibition at 10 µM (AURKA (Aurora A)),inhibition at 1 µM (PDGFRA (PDGFR alpha)),inhibition at 3 µM (PDGFRA (PDGFR alpha)),inhibition at 10 µM (PDGFRA (PDGFR alpha)),inhibition at 1 µM (CSNK1D (CK1 delta)),inhibition at 3 µM (CSNK1D (CK1 delta)),Compound,further results
-11.8%,23.9%,-9.1%,3.41%,5.04%,3.29%,2.87%,1.81%,2.24%,-9.9%,-2.96%,-11.6%,0.058%,0.515%,-0.231%,8.94%,1.9%,4.84%,4.82%,3.36%,"O=C(CSc1nc2nccnc2c(=O)n1CCc1ccccc1)Nc1nccs1 [compound 1, PITCOIN1]",inhibition at 10 µM (CSNK1D (CK1 delta)): 10%; inhibition at 1 µM (PKN1 (PRK1)): 8.46%; inhibition at 3 µM (PKN1 (PRK1)): 1.84%; inhibition at 10 µM (PKN1 (PRK1)): -4.65%
-17.8%,-1.73%,-22.6%,5.04%,9.13%,4.09%,-0.953%,-1.98%,-4.59%,-1.62%,-3.07%,-10.7%,5.01%,0.816%,0.802%,1.77%,20.1%,16.3%,5.88%,7.07%,"CS(=O)(=O)Nc1cccc(-c2csc(NC(=O)CSc3nc4nccnc4c(=O)n3CCc3ccccc3)n2)c1 [compound 3, PITCOIN3]",inhibition at 10 µM (CSNK1D (CK1 delta)): 7.02%; inhibition at 1 µM (PKN1 (PRK1)): 2.88%; inhibition at 3 µM (PKN1 (PRK1)): -5.53%; inhibition at 10 µM (PKN1 (PRK1)): 4.05%; IC50 (PI3KC2β): > 10 µM

# Source: publication PMC7613998, “Development of selective inhibitors of phosphatidylinositol 3-kinase C2α” (Nature Chemical Biology, 2022)
